Results from patent US20240373849A1, “INSECT NEUROPEPTIDE ANALOGUES” (THE UNIVERSITY COURT OF THE UNIVERSITY OF GLASGOW, priority 2020, published 2024).
Several values for one entry are separate records, joined by “and”; a condition that tells them apart may be missing. Equal values may be shown once.

Columns and labels:
CapaR = biological target: T1, CapaR (Drosophila melanogaster, UniProt Q8ITC7); assay: Measurement of intracellular Ca2+ in S2 cells transfected with CapaR (agonist response); assay type: cell-based; conditions: 10^−7 M; activity normalised to that of native Capa2 (designated 100%)
T1 construct: transiently transfected with the apoaequorin ORF; expressed in transfected cells; host or cells: Drosophila melanogaster S2 cells, transient transfection, expression induced with CuSO4
T1 sequence (Q8ITC7 1-477): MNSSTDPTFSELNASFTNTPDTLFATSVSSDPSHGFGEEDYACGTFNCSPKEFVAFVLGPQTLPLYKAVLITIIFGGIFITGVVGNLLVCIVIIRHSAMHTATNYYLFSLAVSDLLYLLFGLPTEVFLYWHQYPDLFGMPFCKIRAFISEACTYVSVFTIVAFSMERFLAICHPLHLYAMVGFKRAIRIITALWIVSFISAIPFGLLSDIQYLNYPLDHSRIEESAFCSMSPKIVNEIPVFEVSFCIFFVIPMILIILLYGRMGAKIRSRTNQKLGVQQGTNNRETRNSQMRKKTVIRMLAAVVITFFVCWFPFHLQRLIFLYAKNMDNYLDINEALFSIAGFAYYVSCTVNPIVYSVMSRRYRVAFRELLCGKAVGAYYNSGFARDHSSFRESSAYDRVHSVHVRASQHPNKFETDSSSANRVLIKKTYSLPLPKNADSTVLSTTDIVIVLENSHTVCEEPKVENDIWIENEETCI
Protocol: Drosophila melanogaster S2 cells, cultured under standard conditions (1) were transiently transfected with the apoaequorin ORF (Radford J C, Davies S A, Dow J A. Systematic G-protein-coupled receptor analysis in Drosophila melanogaster identifies a leucokinin receptor with novel roles. J Biol Chem. 2002; 277:38810-38817) and a receptor ORF construct, and expression induced using CuSO4. Transfected S2 cells were harvested and incubated with 2.5 μM coelenterazine in the dark at RT for 1-2 h as described (ibid). 25,000 cells were then placed in 135 μl Schneider's medium supplemented with 10% FCS in a well of a white polystyrene 96-well plate (Berthold Technologies). Bioluminescence recordings were carried out using a Mithras LB940 automated 96-well plate reader (Berthold Technologies) and MikroWin software. 15 μl of each of different peptides were applied to final concentrations as required.
Peptides were tested at 10^−7M.
At the end of each recording samples were disrupted by the addition of 100 μl lysis solution, and the [Ca^2+] concentrations calculated as previously described (Rosay P, Davies S A, Yu Y, Sozen A, Kaiser K, et al. Cell-type specific calcium signalling in a Drosophila epithelium. J Cell Sci. 1997; 110:1683-1692).
For the Capa1 and Capa2 peptides, the relevant native control peptide (D. melanogaster Capa1 or Capa2 respectively) was used as a control. Control agonist activity was normalised to 100% and activity of neuropeptide analogues is expressed relative to that.

[1] = test system: aminopeptidase, endopeptidase, carboxypeptidase; assay type: in vitro ADME
Protocol: (§1) Enzyme digests were performed using aminopeptidase, endopeptidase, carboxypeptidase, or Drosophila melanogaster Malpighian tubule tissue extract. Peptide digests were performed in triplicate alongside ‘mock’ digests, where protease was substituted with water to determine peptide stability in aqueous media at 37° C. Several peptides were tested, including 1st generation AH56 and 3rs generation AH259. These are biostable in the presence of purified proteases for >24 hours; and for >3 hours to insect tissue extracts which are enriched for proteases.

[2] = assay type: in vitro ADME, Drosophila melanogaster
Protocol: as §1

[3] = test system: bumblebees (Bombus terrestris); assay: Bumblebee acute oral toxicity test; assay type: in vivo; conditions: for lethal effect on bumblebees: 1×10^−5 M in 50% sucrose, 0.1% ATPlus, oral; for safety towards B. terrestris in the bumblebee oral toxicity assay: in vivo
[4] = test system: Drosophila suzukii larvae; assay: Drosophila suzukii larval feeding (Example 8; peptide screening); assay type: in vivo
M. persicae [5] = assay: Feeding of aphids with peptides in artificial diet (Example 1); assay type: in vivo, Myzus persicae; conditions: 10^−5 M
Protocol: A standard artificial diet for M. persicae was produced as described in Van Emden (2009) and provided the basal diet to which peptides were added for screening purposes. Peptides were diluted individually in the artificial diet to a pre-determined concentration.
Feeding apparatus were constructed using a set-up developed by Sadeghi et al (2009). For this, a piece of Parafilm was stretched over a Plexiglas ring (h=4 cm, Ø=3 cm) and 100 μl of the artificial diet containing the desired neuropeptide analogue was pipette onto the Parafilm membrane. A second piece of Parafilm, stretched to 4 times the original thickness, was stretched over the original layer, sandwiching the artificial diet between two layers of Parafilm. A strip of Parafilm was wrapped around the circumference of the Plexiglas ring, sealing in the diet. A plastic ring (h=1.2 cm, Ø=3.4 cm) was subsequently placed over the Parafilm layer, creating a walled chamber in which to house test aphids in contact with the Parafilm layer containing the artificial diet. Finally, a small Petri dish (h=1 cm, Ø=3.6 cm), modified for ventilation with net cloth, was placed on top of each feeding apparatus to prevent aphid escape.
To obtain aphids for use in experiments, reproducing anholocyclic adults were placed on individual excised leaves of Chinese cabbage at densities of 5 adults per leaf and allowed to reproduce for 24 h. The stem of each excised leaf was held within a 0.5 mL Eppendorf tube containing water via a punctured hole in the Eppendorf lid, and placed individually within a microcage (L=4 cm, Ø=9.5 cm). Following 24h, adults were removed and resultant first instar nymphs (<1 day old and synchronised in age to within 24h) retained. Nymphs were allowed to develop on the Chinese cabbage for 5 days. On day 5, (3rd instar) nymphs were transferred onto the artificial diet containing a neuropeptide analogue at densities of 1 per feeding chamber and monitored daily until death. Aphids were transferred to fresh artificial diet (containing neuropeptide analogue or water control) every 5 days.
The water control group was used to determine baseline lethality. Results for neuropeptide analogues were calculated as % lethality in the remaining population after adjustment for the baseline.

M. persicae [6] = assay: Feeding of aphids with peptides in artificial diet (Example 2; peptide screening, honeydew); assay type: in vivo, Myzus persicae; conditions: Peptide screening, Table 5
Source text: First to Fourth generations of peptides were produced with varying structures and tested for CAPA receptor agonist activity, and screened for lethality in vivo against D. suzukii and M. persicae as per methods in example 2 and example 8. The top performing peptides were selected and gave rise to the list of CAPA1 and CAPA2 peptides provided above in Table 1 which were then further tested in the following applied examples.
The aphid feeding protocol was devised according to Sadeghi et al (2009) as explained in example 1. Feeding discs were designed and manufactured as above. A standard sucrose-based artificial diet for M. persicae (30 aphids per chamber, 3 chambers per experiment unless otherwise stated) was produced as described in example 1 (Sadeghi et al, J. Insect Science, 2009) and provided the basal diet to which peptides were added for screening purposes. Peptides were diluted individually in the artificial diet to 10^−5 M. Lethality was scored after up to 120 hours (IRAC guidelines for aphid testing).
Membrane discs were also included to collect ‘honeydew’ secreted by feeding aphids and stained with ninhydrin to observe feeding patterns.
Comparison of purple stain in controls to treated aphids, show there is very little colour on many membranes where peptides were added.
Capa peptides cause mortality in M. persicae via feeding: At 120 hours, AH383 and AH387 peptides induce ˜60% mean (and median) lethality. Although mean lethality is lower with AH270/PEGAH270 (40%), 100% lethality is observed in one sample of 30 insects (AH270); and 90% in at least one sample of each of AH383, AH387 and PEGAH270 (FIG. 3). Note that PEGAH270 is a pegylated form of peptide AH270.

Myzus persicae aphids = assay: Topical application by spraying, Potter Spray Tower (Example 3); assay type: in vivo; conditions: 48 hours post spray
Protocol: Aphids were exposed to test peptides in the absence of additional external stress conditions.
Brassica rapa (Chinese cabbage; Wong Bok) were infested with 30 adult Myzus persicae aphids per plant. Aphids were left at least 2 hours to settle and begin feeding from the host plant.
Potter Spray Tower (Burkard Manufacturing) was ‘primed’ by spraying 1000 μl of liquid coating the inside of the tower. Vehicle spray only (Croda ATPlus UEP 100 LQ-(CQ) 0.1% v/v) was used as a control.
Spray volumes for all solutions were 3000 μl. […] After spraying was completed the plant was allowed to rest on the spray platform for 30 seconds to allow settling of the sprayed chemical.
Post peptide application, each condition was placed into its own individual Bugdorm (Watkins and Doncaster, 44545), to prevent repulsed or displaced aphids moving from one condition to another. Numbers of alive and dead aphids on the plant were counted 48 hours post spray, and the presence of any fresh nymphs noted. Plants were watered prior to spraying but not afterwards to eliminate the possibility of drowning any aphids present or washing off the sprayed liquid.
The vehicle control group was used to determine baseline lethality. Results for neuropeptide analogues were calculated as % lethality in the remaining population after adjustment for the baseline.

[7] = Table 12, individual bees, 20% sucrose 0.1% ATPlus AH56
[8] = Table 12, 20% sucrose 0.1% ATPlus AH56

| Compound | CapaR Ca^2+ Agonist response (CapaR) [%] | biostable in the presence of purified proteases [1] [h] | biostable to insect tissue extracts enriched for proteases [2] [h] | lethal effect on bumblebees [3] | safety towards B. terrestris in the bumblebee oral toxicity assay [3] | Feeding D. suzukii, % lethality in population after adjustment for baseline ([4]; 10^−5 M, 48 hr exposure) [%] | D. suzukii (Mean% Lethality ± SD) ([4]; Peptide screening, Table 5, blank control 20.33) [%] | Feeding Aphid, % lethality in population after adjustment for baseline (M. persicae [5]) [%] | M. persicae (% Lethality) (M. persicae [6]) [%] | Spray Aphid, % lethality in population after adjustment for baseline (Myzus persicae aphids; 10^−4 M) [%] | Spray Aphid, % lethality in population after adjustment for baseline (Myzus persicae aphids; 10^−5 M) [%] | Volume remaining [3, 7] | Volume removed [3, 7] | Volume remaining, group mean [3, 8] [µL] | Volume removed, group mean [3, 8] |
| --- | --- | --- | --- | --- | --- | --- | --- | --- | --- | --- | --- | --- | --- | --- | --- |
| CC(C)C[C@H](N=C(N(C)C)N(C)C)C(=O)N(C)[C@H](C(=O)N[C@@H](C)C(=O)N[C@@H](Cc1ccccc1)C(=O)N1CCC[C@H]1C(=O)N[C@@H](CCCNC(=N)N)C(=O)N[C@H](C(N)=O)C(C)C)C(C)C [AH259, Guanidyl-L-(Me)V-AFPRV-NH2] | 12 | > 24 | > 3 | No lethal effect | safe | – | – | – | – | – | – | – | – | – | – |
| H-Ahx-LVAFPRV-NH2 [AH56] | – | > 24 | > 3 | No lethal effect | safe | 51 | 50.63 | 30 | 30 | 41 | 35 | 211 ul (2×) and 295 ul (2×) and 248 ul (2×) and 216 ul (2×) and 178 ul (2×) | 289 and 205 and 252 and 284 and 322 | 229.6 | 270.4 |
